From US5213978A, “Protease from Micrococcus sedentarius for degrading protein of human callus or corn tissue” (Scholl Plc, priority 1990, dated 1993)

Test system: Micrococcus sedentarius NCIMB 40287
Assay: Antibiotic sensitivities by the disc method
Format: cell-based
Details: disc amount as printed per antibiotic (1 unit, 5-30 μg)

| Compound | Antibiotic sensitivity |
| --- | --- |
| Neomycin | S |
| CN[C@H](CC(C)C)C(=O)N[C@H]1C(=O)N[C@@H](CC(N)=O)C(=O)N[C@H]2C(=O)N[C@H]3C(=O)N[C@H](C(=O)N[C@H](C(=O)O)c4cc(O)cc(O)c4-c4cc3ccc4O)[C@H](O)c3ccc(c(Cl)c3)Oc3cc2cc(c3O[C@@H]2O[C@H](CO)[C@@H](O)[C@H](O)[C@H]2O[C@H]2C[C@](C)(N)[C@H](O)[C@H](C)O2)Oc2ccc(cc2Cl)[C@H]1O [Vanomycin] | S |
